“And” between values parts separate entries of the source, which are not always exact repeats. Identical values can stand only once.
Legend:
[1] = test system: C. elegans BY250 [vtIs7 (Pdat-1:GFP)] CEP neurons; test: 6-OHDA-induced neurodegeneration of CEP neurons in the C. elegans model of PD; type: in vivo, Caenorhabditis elegans; conditions: cotreatment 5 μM with 6-OHDA 5 mM for 30 min, scored after 72 h
Source text: The nematode Caenorhabditis elegans (C. elegans) has been increasingly employed as a genetically tractable in vivo model to study the molecular mechanisms involved in several NDDs due to a short life cycle, fast reproduction, and a highly conserved inheritance (genetic basis).[35] This invertebrate model offers the opportunity to take advantage of the significant conservation of genes and metabolic pathways common to both invertebrates and humans. At the neuronal level, the adult wild-type C. elegans organism contains only eight DA neurons that repeat the features of DA neurons of mammalian, making it possible to simplify the investigations considerably. In the transgenic BY250 [vtIs7 (Pdat-1:GFP)] strain, six DA neurons in the head, namely the four sensory cephalic (CEP) and the two anterior deirid (ADE) neurons, express the green fluorescent protein (GFP) and can be clearly visualized by fluorescence microscopy analysis and thus scored over time.[36] Indeed, in this model, investigations of DA neurons degeneration in vivo are feasible through a first exposition of the nematode to PD-inducing toxin, namely 6-OHDA, followed by direct visualization of the GFP-labeled DA neurons.[37] It is thus possible to screen small molecules for their anti-PD potential, in terms of rescue of the DA neurodegeneration phenotype manifested upon neurotoxin exposure, through visualization and scoring of the alterations of CEP neuron count or neuronal morphology. […] This effect makes it possible the identification of neuroprotective agents with the ability to activate Nrf2 through the inhibition of GSK-3.[38] The curcumin-DEF hybrids 4 and 5 were investigated in the above C. elegans model for their protective effects on 6-OHDA-induced degeneration of a subclass of DA neurons. Animals were incubated with 5 μM concentration of 4 and 5, in the presence of 5 mM of 6-OHDA, for 30 min. After 72 h, the animals were studied by examining the four CEP neurons. Degenerating CEP neurons were morphologically analyzed and quantified (Figure 8). We recorded that in animals treated with 6-OHDA, 68% of CEP neurons degenerated.
Figure 8 Effects of 4 and 5 on 6-OHDA-induced neurodegeneration in C. elegans. Animals were treated with 4 or 5 (5 μM) in the presence of 6-OHDA (5 mM) for 30 min. At the end of incubation, treated animals were placed on fresh agar plates for 72 h and then visualized as described in the Materials and Methods section. (A) In nontreated vtIs7 [pdat-1::GFP] transgenic animals, dopaminergic neurons express GFP, with two of the four CEP cell bodies (white arrows) and relative dendrites (arrowheads) visible in this focal plane in the head. (B) 6-OHDA treatment causes the degeneration of CEP dendrites (empty arrowheads) and two cell bodies (gray arrows), in treated animals. The other two CEP neurons are not visible anymore. (C) Compound 5 cotreatment partially rescues the 6-OHDA-induced toxic effects, with degeneration of one of the CEP dendrites (empty arrowhead) but not the other (arrowhead) and with one CEP cell body still viable (white arrow) and one dying (gray arrow) in this focal plane. […] ADE neurons, which are less affected by 6-OHDA treatment, are also visible but were not scored (asterisks). (D) Quantification of degenerating CEP neurons. Data are expressed as percentages of degenerating neurons and reported as mean ± SEM of at least three independent experiments. […]

GSK-3β = GSK-3β (Homo sapiens, UniProt P49841); test: GSK-3β inhibition, luminescent kinase assay (Kinase-Glo); conditions: for IC50: GSK-3β inhibition IC50 (μM) ± SEM, human recombinant enzyme, luminescence method
GSK-3β, sequence (P49841 whole entry): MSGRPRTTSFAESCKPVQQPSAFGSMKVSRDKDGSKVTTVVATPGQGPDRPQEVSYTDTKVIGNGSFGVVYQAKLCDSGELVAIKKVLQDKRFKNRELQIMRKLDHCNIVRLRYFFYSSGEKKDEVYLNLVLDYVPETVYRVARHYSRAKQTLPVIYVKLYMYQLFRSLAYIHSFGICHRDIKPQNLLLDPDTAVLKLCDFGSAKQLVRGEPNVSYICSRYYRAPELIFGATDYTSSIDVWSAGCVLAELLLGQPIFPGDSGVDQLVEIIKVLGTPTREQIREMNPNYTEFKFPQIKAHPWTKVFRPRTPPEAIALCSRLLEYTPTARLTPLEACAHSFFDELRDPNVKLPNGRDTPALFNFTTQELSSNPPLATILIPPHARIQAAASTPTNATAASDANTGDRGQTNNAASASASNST
Procedure: A kinetic study was performed in which the concentrations of both ATP and tested compounds were varied, while the concentration of the substrate was kept constant.
GSK-3β inhibition . Kinase-Glo assays (Promega Biotech Iberica, SL) were performed in assay buffer using
black 96-well plates. In a typical assay, 10 µl (10 µM) of test compound (dissolved in DMSO at 1 mM concentration and diluted in advance in assa y buffer to the desired concentration) and 10 µL (20 ng) of
enzyme were added to each well followed by 20 µl of assay buffer containing 50 µM substrate and 2 µM ATP.
After 30 -min incu bation at 30 °C
the enzymatic reaction was stopped with 40 µL of Kinase -Glo reagent. Glow -type luminescence was recorded
after 10 min using a FLUOstar Optima (BMG Labtechnologies GmbH, Offenburg Germany) multimode reader.
The activity is proportional to th e difference in the total and consumed ATP. The inhibitory activities were
calculated on the basis of maximal activities measured in the absence of inhibitor. The IC 50 was defined as the concentration of each compound that reduces a 50 % the enzymatic activity with respect to that without
inhibitors. Five different concentrations by duplicate were used to determine the dose/response curve.

SH-SY5Y cells = test: Neuroprotection against 6-OHDA, MTT assay; type: cell-based, human; conditions: 5 μM for 24 h, then 6-OHDA 100 μM for 2 h
Procedure: Figure 6 Effects of 4 and 5 on neurotoxicity induced by OAβ1–42 oligomers and 6-OHDA in SH-SY5Y cells. (A) Cells were incubated with 4 and 5 (5 μM, for 24 h) and then treated with OAβ1–42 (10 μM, for 4 h). (B) Cells were incubated with compounds 4 and 5 (5 μM, for 24 h), then treated with 6-OHDA (100 μM, for 2 h), and then starved in complete medium for 22 h. The neurotoxicity was evaluated by an MTT assay. Data are expressed as percentages of neurotoxicity versus cells treated with Aβ1–42 oligomers or 6-OHDA and reported as mean ± SEM of at least three independent experiments (* p < 0.05 versus cells treated with 6-OHDA at one-way ANOVA with the Dunnett post hoc test).
The neurotoxin 6-OHDA provides an in vitro lesion model by inducing CNS oxidative damage and neuroinflammation suitable for assessing the neuroprotective potential of PD therapeutics.[34] Consistent with these effects, 6-OHDA (100 μM, for 2 h) was employed to induce damage in SH-SY5Y cells previously treated with 4 and 5 (5 μM, for 24 h).
Then, cells were treated with 6-hydroxydopamine (6-OHDA, 100 μM) for 2 h and starved in complete medium for 22 h. The neuroprotective activity was measured by using the MTT assay as previously described.[47] Data are expressed as a percentage of neurotoxicity versus untreated cells.

[2] = test system: TagGFP2-α-syn SH-SY5Y cells; test: α-syn aggregates induced by 6-OHDA, fluorescence microscopy; type: cell-based, human; conditions: 5 μM for 24 h, then 6-OHDA 100 μM for 2 h
Procedure: Assessment of the α-syn aggregate formation was performed to corroborate the above results. TagGFP2-α-syn SH-SY5Y cells were treated for 24 h with 5 μM of 4 and 5 and then with 100 μM of 6-OHDA. After a 2 h incubation, the presence of α-syn aggregates was visualized by fluorescence microscopy analysis and quantified (Figure 7).
Figure 7 Effects of compounds 4 and 5 on α-syn aggregates induced by 6-OHDA in TagGFP2-α-syn SH-SY5Y cells. Cells were treated with compounds 4 and 5 (5 μM, for 24 h) and then with 6-OHDA (100 μM, for 2 h). At the end of incubation, the α-syn aggregates level was detected by fluorescence microscope. (A) Representative images of α-syn aggregates. (B) Quantification of the α-syn aggregates level. Data are expressed as mean fluorescence intensity ± SEM of at least three independent experiments (§§ p < 0.01 vs untreated cells, * p < 0.05 vs cells treated with 6-OHDA at one-way ANOVA with the Bonferroni post hoc test). Scale bars: 50 μm.
At the end of incubation, the aggregation of α-synuclein was detected using an inverted fluorescent microscope (Eclipse Ti-E, Nikon Instruments Spa, Florence, Italy). The intensity of fluorescence was directly proportional to the aggregation of α-synuclein. Data are expressed as arbitrary units of fluorescence.

CCOC(=O)/C=C/C(C(=O)/C=C/c1ccc(OC)cc1)=C(O)\C=C\c1ccc(OC)cc1 [Compound 4, Ethyl (2E,4Z,6E)-5-Hydroxy-7-(4-methoxyphenyl)-4-((E)-3-(4-methoxyphenyl)acryloyl)hepta-2,4,6-trienoate]
degenerating CEP neurons [1]: 67% | rescue of the 6-OHDA-induced degeneration phenotype [1]: no rescue | IC50 (GSK-3β): > 10 µM | inhibition at 10 µM (GSK-3β; read-out: GSK-3β inhibition, inhibition (%)): 40% | protection against 6-OHDA-induced decrease in cell viability (SH-SY5Y cells): mitigate the 6-OHDA-induced decrease in cell viability | levels of α-syn aggregates elicited by 6-OHDA [2]: significantly decrease the levels of toxic α-syn aggregates

CCOC(=O)/C=C/C(C(=O)/C=C/c1ccc(OC)cc1)=C(O)\C=C\c1ccc(OCc2ccccc2)cc1 [Compound 5, Ethyl (2E,4Z,6E)-7-(4-(Benzyloxy)phenyl)-5-hydroxy-4-((E)-3-(4-methoxyphenyl)acryloyl)hepta-2,4,6-trienoate]
degenerating CEP neurons [1]: 55% | rescue of the 6-OHDA-induced degeneration phenotype [1]: partial rescue | IC50 (GSK-3β): 8.4 µM and 8.39 µM | protection against 6-OHDA-induced decrease in cell viability (SH-SY5Y cells): mitigate the 6-OHDA-induced decrease in cell viability | levels of α-syn aggregates elicited by 6-OHDA [2]: significantly decrease the levels of toxic α-syn aggregates
